Results published in patent US7803930B2, “Antisense modulation of apolipoprotein B-expression” (Isis Pharmaceuticals, Inc., priority 2002, dated 2010).
In the oligonucleotide strings, read from the 5' end, every base follows the letter of its sugar. An asterisk marks phosphorothioate; unmarked linkages are phosphodiester. Other units and linkages are bracketed, terminal groups are in braces. A string of capitals states the bases alone. e = 2'-O-(2-methoxyethyl) (MOE); [5mC] = 5-methylcytosine; d = 2'-deoxy (DNA)

Assays:
[1] = system: apolipoprotein B protein; experiment: Apolipoprotein B protein secreted from primary human hepatocytes, ELISA; type: cell-based; conditions: 300 nM
[2] = system: apolipoprotein B protein; experiment: as above; type: cell-based
Protocol: Oligonucleotides were introduced into cells through LIPOFECTIN-mediated transfection as described by other examples herein. Cells were harvested both 24 and 48 hours after treatment with oligonucleotide, and both RNA and protein were isolated. Additionally, the culture media from treated cells was collected for ELISA analysis of apolipoprotein B protein secretion.
Apolipoprotein secreted from into the cultured cell media was measured in the samples treated with 50 and 150 nM of oligonucleotide, using a target protein specific ELISA kit (ALerCHEK Inc., Portland, Me.). Each result represents 3 experiments.
An additional experiment was performed to test the effects of ISIS 271009 (SEQ ID NO: 319), ISIS 281625 (SEQ ID NO: 224) and ISIS 301027 (SEQ ID NO: 262) on human apolipoprotein B mRNA in human primary hepatocytes. Cells were cultured as described herein and treated with 5, 10, 50 or 150 nM of ISIS 271009, ISIS 281625 or ISIS 301027 for a period of 24 hours. The control oligonucleotides ISIS 13650 (SEQ ID NO: 806) and ISIS 113529 (SEQ ID NO: 859) were used at 50 or 150 nM. Human apolipoprotein B mRNA expression was evaluated by real-time PCR as described by other examples herein. Apolipoprotein B protein secreted into the cultured cell media was measured in the samples treated with 50 and 150 nM of oligonucleotide, using a target protein specific ELISA kit (ALerCHEK Inc., Portland, Me.).

[3] = system: apolipoprotein B mRNA; experiment: LDLr(-/-) mice dose response (Example 44): apolipoprotein B mRNA; type: in vivo, mouse; conditions: six weeks
Protocol: LDLr(−/−) mice, purchased from Taconic (Germantown, N.Y.) were used to evaluate antisense oligonucleotides for their potential to lower apolipoprotein B mRNA or protein levels, as well as phenotypic endpoints associated with apolipoprotein B. LDLr(−/−) mice were separated into groups of males and females. LDLr(−/−) mice were dosed intraperitoneally twice a week for six weeks with either 10, 25, or 50 mg/kg of ISIS 147764 (SEQ ID NO: 109) or ISIS 270906 (SEQ ID NO: 856) which is a 4 base mismatch of ISIS 147764, or with saline, or 20 mg/kg of Atorvastatin. At study termination animals were sacrificed and evaluated for several phenotypic markers.

[4] = system: endogenous mouse apolipoprotein B; experiment: C57BL/6NTac-TgN(APOB100) transgenic mice, 8 weeks (Example 47): endogenous mouse apolipoprotein B mRNA in liver; type: in vivo; conditions: C57BL/6NTac-TgN(APOB100) mice, 25 mg/kg i.p. twice a week, eight weeks; for mRNA % control, mouse mRNA: liver; for levels of the endogenous mouse apolipoprotein B in liver: specificity
Protocol: (§1) C57BL/6NTac-TgN(APOB100) mice were divided into two groups—one group receiving oligonucleotide treatment and control animals receiving saline treatment. After overnight fasting, mice were dosed intraperitoneally twice a week with saline or 25 mg/kg ISIS 281625 (SEQ ID No: 224) or ISIS 301012 (SEQ ID No: 247) for eight weeks. At study termination and forty eight hours after the final injections, animals were sacrificed and evaluated for target mRNA levels in liver, cholesterol and triglyceride levels, and liver enzyme levels. In addition, the endogenous mouse apolipoprotein B levels in liver were measured to evaluate any effects of these antisense oligonucletides targeted to the human apolipoprotein B.

[5] = system: human apolipoprotein B mRNA; experiment: C57BL/6NTac-TgN(APOB100) transgenic mice, 8 weeks (Example 47): human apolipoprotein B mRNA in liver; type: in vivo, human transgene in mouse; conditions: C57BL/6NTac-TgN(APOB100) mice, 25 mg/kg i.p. twice a week, eight weeks; for mRNA % control, human mRNA: liver
Protocol: as §1

[6] = system: human apolipoprotein B mRNA; experiment: Inhibition of apolipoprotein B mRNA by dsRNAs in HepG2 cells; type: cell-based; conditions: 150 nM with 3.75 μg/mL LIPOFECTIN
Protocol: In accordance with the present invention, a series of nucleic acid duplexes comprising the antisense compounds of the present invention and their complements were designed to target apolipoprotein B and are shown in Table 42. All compounds in Table 42 are oligoribonucleotides 20 nucleotides in length with phosphodiester internucleoside linkages (backbones) throughout the compound. The compounds were prepared with blunt ends. […] These sequences are shown to contain uracil (U) but one of skill in the art will appreciate that uracil (U) is generally replaced by thymine (T) in DNA sequences. “Targer site” indicates the first (5′-most) nucleotide number on the particular target sequence to which the compound binds. A subset of the compounds in Table 42 are the RNA equivalents of DNA antisense oligonucleotides described herein, and, where applicable, this is noted by the ISIS # of the DNA oligonucleotide in the column “RNA equivalent of ISIS #”.
The dsRNA compounds in Table 42 were tested for their effects on human apolipoprotein mRNA in HepG2 cells. HepG2 cells were treated with 100 nM of dsRNA compounds mixed with 5 μg/mL LIPOFECTIN (Invitrogen Corporation, Carlsbad, Calif.) for a period of 16 hours. In the same experiment, HepG2 cells were also treated with 150 nM of subset of the antisense oligonucleotides described herein mixed with 3.75 μg/mL LIPOFECTIN; these compounds are listed in Table 43. Control oligonucleotides included ISIS 18078 ([…], SEQ ID NO: 888). ISIS 18078 is a chimeric oligonucleotide (“gapmer”) 20 nucleotides in length, composed of a central “gap” region consisting of 9 2′-deoxynucleotides, which is flanked on the 5′ and 3′ ends by a five-nucleotide “wing” and a six-nucleotide “wing”, respectively. The wings are composed of 2′-methoxyethyl (2′-MOE)nucleotides. The internucleoside (backbone) linkages are phosphorothioate (P═S) throughout the oligonucleotide. All cytidines are 5-methylcytidines. The duplex of ISIS 263188 ([…], SEQ ID NO: 889) and its complement was also used as a control. ISIS 263188 is an oligoribonucleotide 21 nucleotides in length with the 2 nucleotides on the 3′ end being oligodeoxyribonucleotides (TT) and with phosphodiester internucleoside linkages (backbones) throughout the compound.
Cells were treated for 4 hours, after which human apolipoprotein B mRNA expression was measured as described by examples herein. Results were normalized to untreated control cells, which were not treated with LIPOFECTIN or oligonucleotide.

[7] = system: human apolipoprotein B protein; experiment: Transgenic mice (Example 47): serum human apolipoprotein B protein by ELISA; type: in vivo, human transgene in mouse; conditions: 25 mg/kg, relative to saline-treated animals
Protocol: Serum samples were also collected at 2, 4, 6 and 8 weeks and were evaluated for human apolipoprotein B expression by using a human apolipoprotein B specific ELISA kit (ALerCHEK Inc., Portland, Me.). […] Treatment with ISIS 301012 reduced serum human apolipoprotein B protein by 70, 87, 81 and 41% at 2, 4, 6 and 8 weeks, respectively, relative to saline-treated control animals. Serum from transgenic mice was also subjected to immunoblot analysis using both human and mouse specific apolipoprotein B antibodies (US Biologicals, Swampscott, Mass. and Santa Cruz Biotechnology, Inc., Santa Cruz, Calif., respectively).

[8] = 150 nM, 24 hours, "+" = increased

“113529 (antisense e[5mC]*eT*e[5mC]*eT*eT*dA*d[5mC]*dT*dG*dT*dG*d[5mC]*dT*dG*dT*eG*eG*eA*e[5mC]*eA) [compound 113529]” was tested, and the “% Change in apolipoprotein B protein secretion” value (from here on “% Change”) ([1]; 24 hours) was −2%, the “% Change” value ([1]; 48 hours) was −5% and the “% Change” value ([2]; 150 nM, 24 hours) was “+6%”. For the same substance, the “% Change” value ([2]; 150 nM, 48 hours) was “+4%”.

For “147764 (eG*eT*e[5mC]*e[5mC]*e[5mC]*dT*dG*dA*dA*dG*dA*dT*dG*dT*d[5mC]*eA*eA*eT*eG*e[5mC]) [compound 147764]”, the “apolipoprotein B mRNA % control” value ([3]; female LDLr(-/-) mice, 10 mg/kg i.p. twice a week) was 64.2 % control, the “apolipoprotein B mRNA % control” value ([3]; female LDLr(-/-) mice, 25 mg/kg i.p. twice a week) was 41.3 % control and the “apolipoprotein B mRNA % control” value ([3]; female LDLr(-/-) mice, 50 mg/kg i.p. twice a week) was 18.5 % control. For the same substance, the “apolipoprotein B mRNA % control” value ([3]; male LDLr(-/-) mice, 10 mg/kg i.p. twice a week) was 61.7 % control, the “apolipoprotein B mRNA % control” value ([3]; male LDLr(-/-) mice, 25 mg/kg i.p. twice a week) was 30.7 % control and the “apolipoprotein B mRNA % control” value ([3]; male LDLr(-/-) mice, 50 mg/kg i.p. twice a week) was 16.6 % control.

“281625 (antisense eA*eG*eG*eT*eT*dA*d[5mC]*d[5mC]*dA*dG*d[5mC]*d[5mC]*dA*d[5mC]*dA*eT*eG*e[5mC]*eA*eG) [compound 281625]” was tested, and the “mRNA % control, mouse mRNA” value [4] was 111.0 % control, the “mRNA % control, human mRNA” value [5] was 45.2 % control and the “% Inhibition of apolipoprotein B mRNA” value [6] was 79%.

With “301012 (eG*e[5mC]*e[5mC]*eT*e[5mC]*dA*dG*dT*d[5mC]*dT*dG*d[5mC]*dT*dT*d[5mC]*eG*e[5mC]*eA*e[5mC]*e[5mC]) [compound 301012]” the “% Change” value ([1]; 24 hours) was −41%, the “% Change” value ([1]; 48 hours) was −48% and the “mRNA % control, mouse mRNA” value [4] was 94.6 % control. The “% Change” value ([2]; 150 nM, 24 hours) was −57%, the “% Change” value ([2]; 150 nM, 48 hours) was −75% and the “mRNA % control, human mRNA” value [5] was 23.7 % control. The “% Inhibition of apolipoprotein B mRNA” value [6] was 77%.

In the case of “301027 (eG*e[5mC]*eT*e[5mC]*eA*d[5mC]*dT*dG*dT*dA*dT*dG*dG*dT*dT*eT*eT*eA*eT*e[5mC]; antisense) [compound 301027]”, the “% Inhibition of apolipoprotein B mRNA” value [6] is reported as 79%.

With “GTCCCTGAAGATGTCAATGC (2'-MOE gapmer, further chemistry not given here) [ISIS 147764]” the mRNA levels ([3]; male and female LDLr(-/-) mice, 10, 25 or 50 mg/kg i.p. twice a week) was “able to lower cholesterol, triglycerides, and mRNA levels in a dose-dependent manner”.

“ISIS 281625: SEQ ID NO: 224, 2′-MOE gapmer targeted to human apolipoprotein B (antisense eA*eG*eG*eT*eT*dA*d[5mC]*d[5mC]*dA*dG*d[5mC]*d[5mC]*dA*d[5mC]*dA*eT*eG*e[5mC]*eA*eG)” was tested, and the “levels of the endogenous mouse apolipoprotein B in liver” value [4] was “unaffected”, the “% Inhibition of apolipoprotein B protein secretion” value ([2]; 50 nM, 24 hours) was 18% and the “% Inhibition of apolipoprotein B protein secretion” value [2, 8] was 18%. For the same substance, the “mRNA levels of the human apolipoprotein B in liver” value [5] was “markedly decreased”, the “reduction of serum human apolipoprotein B protein (ELISA)” value (from here on “reduction”) ([7]; 2 weeks) was 31% and the “reduction” value ([7]; 4 weeks) was 26%. The “reduction” value ([7]; 6 weeks) was 11% and the “reduction” value ([7]; 8 weeks) was 26%.

In the case of “ISIS 301012: SEQ ID NO: 247, antisense oligonucleotide targeted to human apolipoprotein B (antisense GCCTCAGTCTGCTTCGCACC; chemistry not given here)”, the “levels of the endogenous mouse apolipoprotein B in liver” value [4] is reported as “unaffected”, the “mRNA levels of the human apolipoprotein B in liver” value [5] is reported as “markedly decreased” and the “reduction” value ([7]; 2 weeks) is reported as 70%. For the same substance, the “reduction” value ([7]; 4 weeks) was 87%, the “reduction” value ([7]; 6 weeks) was 81% and the “reduction” value ([7]; 8 weeks) was 41%.

For “ISIS 301027: SEQ ID NO: 262, 2′-MOE gapmer targeted to human apolipoprotein B (antisense eG*e[5mC]*eT*e[5mC]*eA*d[5mC]*dT*dG*dT*dA*dT*dG*dG*dT*dT*eT*eT*eA*eT*e[5mC])”, the “% Inhibition of apolipoprotein B protein secretion” value ([2]; 50 nM, 24 hours) was 21%, the “% Inhibition of apolipoprotein B protein secretion” value [2, 8] was 32% and the “secretion of apolipoprotein B protein from cells (ELISA)” value ([2]; 50 and 150 nM) was “inhibit the secretion of apolipoprotein B protein from cells in a dose-dependent manner”.
